The values below come from US4515891A, “Process for the production of disaccharide-tripeptide and disaccharide-tetrapeptide” (priority 1982, dated 1985).

The subject of data set [1] is delayed-type hypersensitivity to ovalbumin. Briefly: Immunostimulant (immunoadjuvant) activity: corneal response. To be noted: grade 0 to 3.0; guinea pigs sensitized with 1 mg ovalbumin + 100 μg test compound in water-in-oil emulsion; intracorneal ovalbumin 2 weeks after sensitization, read after 48 hours. The format is in vivo, Hartley strain guinea pigs. The protocol:
(§1) The animals sensitized were prepared as follows. Groups of 5 female Hartley strain guinea pigs, weighing 200 to 300 g, were injected in the left hind food-pad with 0.2 ml of a water-in-oil emulsion containing 1 mg of crystalline ovalbumin as antigen and 100 μg of test compound. The water-in-oil emulsion consisted of Drakeol 6VR (Pennsylvania Refining Co., U.S.A.), Arlacel A (Atlas Chemical Industries Inc., U.S.A.) and 1/75M phosphate-buffered physiological saline (pH 7.0) in a ratio of 4:1:5 by volume. Control guinea pigs were injected with a water-in-oil emulsion of similar composition containing the antigen but not test compound (Freund's incomplete adjuvant).
To test for the induction of delayed-type hypersensitivity to ovalbumin, that is, the enhancement of cell-mediated immunity, 2 weeks after the sensitization the guinea pigs were given an intracorneal injection of ovalbumin solution (20 mg/ml saline) to make a transient disc of opacity of approximately 5 mm in diameter. The eyes were examined after 48 hours and the extent and degree of corneal opacity were recorded. The reactions were graded from 3.0, for a strong reaction where the whole cornea was thickened, opaque and grayish-white, to 1.0, where slight opacity was observed. When no visible difference from the uninjected eye was detected, the reaction was graded as 0.

The test system is the same in data set [2]. Briefly: Immunostimulant (immunoadjuvant) activity: skin reaction. The class given is in vivo, Hartley strain guinea pigs. The note with it: extent of induration; guinea pigs sensitized with 1 mg ovalbumin + 100 μg test compound; intradermal ovalbumin 3 weeks after sensitization, measured after 48 hours. As to the method:
as §1
To test for the induction of delayed-type hypersensitivity to ovalbumin, 3 weeks after the sensitization the guinea pigs were given an intradermal injection of ovalbumin solution (0.1 mg/0.1 ml saline) at one hind foot-pad shaved with a clipper. The size of induration was measured after 48 hours. The extent of induration was calculated by the formula as described in Biken Journal, 20, pages 95-103 (1977).

The next data set has as its system antiovalbumin antibody. Briefly: Immunostimulant (immunoadjuvant) activity: production of humoral antibody. The class given is in vivo, Hartley strain guinea pigs. The note with it: guinea pigs bled 4 weeks after sensitization with 1 mg ovalbumin + 100 μg test compound. As to the method: as §1
To test for the enhancement of production of humoral antibody, 4 weeks after the sensitization the guinea pigs were bled by cardiac puncture. The levels of antiovalbumin antibody nitrogen were measured quantitatively using a spectrophotometric technique.

The subject of data set [3] is Pseudomonas aeruginosa No. 12. In words: Enhancement of nonspecific resistance to bacterial infections. The class given is in vivo, Std-ddY strain mice. The note with it: survivors 7 days after infection, mice. The protocol:
Male Std-ddY strain mice weighing about 23 g were used. Test compounds were dissolved in physiological saline and intravenously administered to the animals 72, 48 and 24 hours before the intraperitoneal infection with Pseudomonas aeruginosa No. 12 (inoculum size: 2×10^6 cells/mouse). The number of survivors were recorded 7 days after the infection.

The nature of data set [4]: Solubility (physicochemical properties).
Where [5] appears, read: dose 0.0125 mg/kg i.v. 72, 48 and 24 hours before i.p. infection.
The mark [6] stands for this setting: dose 0.05 mg/kg i.v. 72, 48 and 24 hours before i.p. infection.
[7] abbreviates: dose 0.2 mg/kg i.v. 72, 48 and 24 hours before i.p. infection.
Where [8] appears, read: dose 0.8 mg/kg i.v. 72, 48 and 24 hours before i.p. infection.
Where [9] appears, read: dose 3.1 mg/kg i.v. 72, 48 and 24 hours before i.p. infection.
[10] abbreviates: dose 12.5 mg/kg i.v. 72, 48 and 24 hours before i.p. infection.

Regarding `CC(=O)N[C@H]1[C@H](O[C@H]2[C@H](O[C@H](C)C(=O)N[C@@H](C)C(=O)N[C@H](CCC(=O)N[C@@H](CCC[C@@H](N)C(N)=O)C(=O)O)C(N)=O)[C@@H](NC(C)=O)C(O)O[C@@H]2CO)O[C@H](CO)[C@@H](O)[C@@H]1O` (stereo partly drawn) [GMP3 -A, β-N-acetylglucosaminyl-(1→4)-N-acetylmuramyl-L-alanyl-D-isoglu taminyl-(L)-meso-2,6-diaminopimelic acid-(D)-amide], the Corneal response in data set [1] is on record as 2.2. For the same compound, in data set [2], the Skin reaction turned out to be 2.5. The Antibody nitrogen with antiovalbumin antibody came to 350 ± 50 µg/mL. Moreover, the “Number of survivors/total number of test animals” value in data set [3] (dose 0.0031 mg/kg i.v. 72, 48 and 24 hours before i.p. infection) was 7/16; in data set [3] (setting [5]), 9/16; in data set [3] (setting [6]), 9/16; in data set [3] (setting [7]), 8/16; in data set [3] (setting [8]), 10/16; in data set [3] (setting [9]) it was 14/16. Besides, the “Number of survivors/total number of test animals” value in data set [3] (setting [10]) is recorded as 16/16. Also, the Solubility result is listed as “insoluble” in data set [4] (in diethyl ether) and “Soluble” in data set [4] (in water, 50% C1-3 alcohol).

Regarding `CC(=O)N[C@H]1[C@H](O[C@H]2[C@H](O[C@H](C)C(=O)N[C@@H](C)C(=O)N[C@H](CCC(=O)N[C@@H](CCC[C@@H](N)C(N)=O)C(=O)N[C@H](C)C(=O)O)C(N)=O)[C@@H](NC(C)=O)C(O)O[C@@H]2CO)O[C@H](CO)[C@@H](O)[C@@H]1O` (stereo partly drawn) [GMP4 -A, β-N-acetylglucosaminyl-(1→4)-N-acetylmuramyl-L-alanyl-D-isoglu taminyl-(L)-meso-2,6-diaminopimelic acid-(D)-amide-(L)-D-alanine], the Corneal response in data set [1] was 2.0. In addition, the Skin reaction in data set [2] amounted to 3.7. Further, in the data set with antiovalbumin antibody, the Antibody nitrogen stood at 399 ± 90 µg/mL. The “Number of survivors/total number of test animals” value in data set [3] (setting [5]) was 6/16; in data set [3] (setting [6]), 6/16; in data set [3] (setting [7]), 4/16; in data set [3] (setting [8]), 7/16; in data set [3] (setting [9]) it was 7/16; in data set [3] (setting [10]), 16/16. Besides, the Solubility entry is “insoluble” in data set [4] (in diethyl ether) and “Soluble” in data set [4] (in water, 50% C1-3 alcohol).

Consider “β-N-acetylglucosaminyl-(1→4)-N,6-O-diacetylmuramyl-L-alanyl-D- isoglutaminyl-(L)-meso-2,6-diaminopimelic acid-(D)-amide-(L)-D-alanine [GMP4 -B]”, for which the Corneal response in data set [1] came to 2.2. The Skin reaction in data set [2] amounted to 3.7. In addition, the Antibody nitrogen in the data set on antiovalbumin antibody is 216 ± 57 µg/mL. Besides, the “Number of survivors/total number of test animals” value is 4/16 in data set [3] (setting [5]); 4/16 in data set [3] (setting [6]); 6/16 in data set [3] (setting [7]); 9/16 in data set [3] (setting [8]); 10/16 in data set [3] (setting [9]); 16/16 in data set [3] (setting [10]).

On to “β-N-acetylglucosaminyl-(1→4)-N,6O-diacetylmuramyl-L-alanyl-D-i soglutaminyl-(L)-meso-2,6-diaminopimelic acid-(D)-amide [GMP3 -B]”, for which the Corneal response in data set [1] is on record as 2.4. Besides, the Skin reaction in data set [2] was 3.5. Besides, the Antibody nitrogen in the data set on antiovalbumin antibody is 250 ± 40 µg/mL. Further, the “Number of survivors/total number of test animals” value in data set [3] (setting [5]) is on record as 5/16; in data set [3] (setting [6]) it was 7/16; in data set [3] (setting [7]), 9/16; in data set [3] (setting [8]), 10/16; in data set [3] (setting [9]), 12/16; in data set [3] (setting [10]), 16/16. Also, the Solubility entry in data set [4] (in diethyl ether) is listed as “insoluble”; in data set [4] (in water, 50% C1-3 alcohol) it was “Soluble”.
